Results taken from patent publication US20130123227A1, “NOVEL ORGANO-PALLADIUM COMPLEXES” (priority 2010, published 2013).

Experiment: Seizure incidence in mice
Assay type: in vivo
From the text: The original Pd-lipoic acid complex provides a structure in which the palladium is safely sequestered, and which is also active in the lipoic acid binding site in mitochondrial complex I, thereby coupling to enzymatic charge transfer. […] To eliminate seizure activity, the G10 stage of the synthetic complex was further investigated and combined with various substances, until there were no seizures. This was ultimately achieved by complexing with zinc-amino acid complexes.

C[C@@H](O)[C@H](N)C(=O)O.C[C@@H](O)[C@H](N)C(=O)O.[Zn] [Zn-bis(threonine)]
seizures: modulates and inhibits the seizure potentials
